This passage reports IC50 and solubility results from patent US20220380319A1 (Bial - R&D Investments, S.A., priority 2019, published 2022).

The target of one series is T1, acid ceramidase (Homo sapiens, UniProt Q13510).
T1 construct: Cell lysates overexpressing acid ceramidase were used as the enzyme source; expressed in transfected cells
T1 sequence (Q13510 22-395): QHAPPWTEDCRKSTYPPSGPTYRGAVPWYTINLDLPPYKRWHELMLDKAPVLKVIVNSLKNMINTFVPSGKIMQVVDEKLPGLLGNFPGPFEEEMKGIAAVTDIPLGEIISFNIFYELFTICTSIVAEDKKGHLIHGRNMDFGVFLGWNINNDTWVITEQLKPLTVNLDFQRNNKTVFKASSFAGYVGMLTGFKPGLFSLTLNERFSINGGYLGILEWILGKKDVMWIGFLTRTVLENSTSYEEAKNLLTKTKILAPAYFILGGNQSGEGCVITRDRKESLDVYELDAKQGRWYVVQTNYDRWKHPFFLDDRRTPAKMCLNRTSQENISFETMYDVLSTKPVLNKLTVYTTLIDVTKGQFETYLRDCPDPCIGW
The series can be described thus: Acid ceramidase inhibition, biochemical fluorescent assay with cell lysates overexpressing acid ceramidase, substrate Rbm14-12. Conditions: substrate Rbm14-12 6.3 μM. The procedure, abridged:
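IC50 derived by four-parameter fitting of fluorescence (ex360 nm, em446 nm) produced after 1 hr in methanol/NaIO4/glycine stop buffer, pH 10.6. Reaction: 6.3 μM Rbm14-12, 1 hr RT, following 1 hr RT compound preincubation with 10 μg overexpressing-cell lysate protein in pH 4.5 NaAC/NaCl buffer.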

Series [1] in a line: Compound solubility in water.
The mark [2] stands for this setting: pH 4.5, 1 hr preincubation at RT.

Values after ≈ are worked out from the molar mass of the structure shown. Where only a bound is given, the exact number is not on record here.

Turning to `COc1nc2cc(F)c(N3CCN(C4CN(C)C4)CC3)cc2n1C(=O)NCCCc1ccccc1` [Example 319b, 5-fluoro-2-methoxy-6-(4-(1-methylazetidin-3-yl)piperazin-1-yl)-N-(3-phenylpropyl)-1H-benzo[d]imidazole-1-carboxamide], the IC50 at acid ceramidase (pH 4.5) was in the range of 200 to 1000 nM. In series [1], this compound showed a solubility of 46 µg/mL (≈ 95.7 µM).
Regarding `COc1nc2cc(N3CCN(C4CN(C)C4)CC3)c(F)cc2n1C(=O)NCC#CC(C)C` [Example 320a, 6-Fluoro-2-methoxy-5-(4-(1-methylazetidin-3-yl)piperazin-1-yl)-N-(4-methylpent-2-yn-1-yl)-1H-benzo[d]imidazole-1-carboxamide], the IC50 against acid ceramidase (pH 4.5) was above 1000 nM. Also, the concentration in solution in series [1] (solubility) was 33 µg/mL (≈ 74.6 µM).
For the compound `COc1nc2cc(F)c(N3CCN(C4CN(C)C4)CC3)cc2n1C(=O)NCC#CC(C)C` [Example 320b, 5-fluoro-2-methoxy-6-(4-(1-methylazetidin-3-yl)piperazin-1-yl)-N-(4-methylpent-2-yn-1-yl)-1H-benzo[d]imidazole-1-carboxamide], the IC50 against acid ceramidase (pH 4.5) lay in the range of 200 to 1000 nM. The compound also yielded a solubility in series [1] of 42 µg/mL (≈ 94.9 µM).
With `COc1nc2cc(N3CCOCC3)c(F)cc2n1C(=O)NCC#CC(C)C` [Example 321a, 6-Fluoro-2-methoxy-N-(4-methylpent-2-yn-1-yl)-5-morpholino-1H-benzo[d]imidazole-1-carboxamide], the IC50 against acid ceramidase (pH 4.5) was 200 to 1000 nM. Further, in series [1], the solubility was determined as 2 µg/mL (≈ 5.34 µM).
For the compound `COc1nc2cc(F)c(N3CCOCC3)cc2n1C(=O)NCC#CC(C)C` [Example 321b, 5-fluoro-2-methoxy-N-(4-methylpent-2-yn-1-yl)-6-morpholino-1H-benzo[d]imidazole-1-carboxamide], the IC50 against acid ceramidase (pH 4.5) lay within 200 to 1000 nM. Also, in series [1], the solubility was determined as 3 µg/mL (≈ 8.01 µM).
As to `COc1nc2c(N3CCN(C)CC3)cccc2n1C(=O)NCC#Cc1ccccc1` [Example 322, 2-Methoxy-4-(4-methylpiperazin-1-yl)-N-(3-phenylprop-2-yn-1-yl)-1H-benzo[d]imidazole-1-carboxamide], the IC50 against acid ceramidase (pH 4.5) lay within 200 to 1000 nM. Moreover, the solubility in series [1] was 22 µg/mL (≈ 54.5 µM).
The corresponding values for `Cc1ccc(CNC(=O)n2cnc3c(N4CCN(C)CC4)cccc32)cc1` [Example 323, N-(4-Methylbenzyl)-4-(4-methylpiperazin-1-yl)-1H-benzo[d]imidazole-1-carboxamide] are below 200 nM and 16 µg/mL (≈ 44 µM).
In the case of `CN1CCN(c2cccc3c2ncn3C(=O)NCCc2ccccc2)CC1` [Example 324, 4-(4-Methylpiperazin-1-yl)-N-phenethyl-1H-benzo[d]imidazole-1-carboxamide], at acid ceramidase (pH 4.5), the IC50 was in the range of 200 to 1000 nM. The amount in solution in series [1] (solubility) came to 11 µg/mL (≈ 30.3 µM).
In turn, `CN1CC(N2CCN(c3cccc4c3ncn4C(=O)NCCc3ccccc3)CC2)C1` [Example 325, 4-(4-(1-Methylazetidin-3-yl)piperazin-1-yl)-N-phenethyl-1H-benzo[d]imidazole-1-carboxamide] gave an IC50 at acid ceramidase (pH 4.5) below 200 nM. In addition, the solubility in series [1] stood at 32 µg/mL (≈ 76.5 µM).
On acid ceramidase (pH 4.5), `O=C(NCCc1ccccc1)n1cnc2c(N3CCN(C4COC4)CC3)cccc21` [Example 326, 4-(4-(Oxetan-3-yl)piperazin-1-yl)-N-phenethyl-1H-benzo[d]imidazole-1-carboxamide] showed an IC50 below 200 nM. Further, the concentration in solution in series [1] (solubility) came to 21 µg/mL (≈ 51.8 µM).
In turn, `O=C(NCCOc1ccccc1)n1cnc2c(N3CCN(C4COC4)CC3)cccc21` [Example 327, 4-(4-(Oxetan-3-yl)piperazin-1-yl)-N-(2-phenoxyethyl)-1H-benzo[d]imidazole-1-carboxamide] registered an IC50 against acid ceramidase (pH 4.5) below 200 nM. The same compound had a solubility in series [1] of 25 µg/mL (≈ 59.3 µM).
`CN1CC(N2CC3CC2CN3c2cccc3c2ncn3C(=O)NCCOc2ccccc2)C1` (stereo not shown) [Example 328, 4-(5-(1-Methylazetidin-3-yl)-2,5-diazabicyclo[2.2.1]heptan-2-yl)-N-(2-phenoxyethyl)-1H-benzo[d]imidazole-1-carboxamide] showed a half-maximal inhibitory concentration (IC50) against acid ceramidase (pH 4.5) below 200 nM. The solubility in series [1] came out at 41 µg/mL (≈ 91.8 µM).
On acid ceramidase (pH 4.5), `COc1nc2c(N3CC(N4CCN(C)CC4)C3)cccc2n1C(=O)NCCOc1ccccc1` [Example 329, 2-Methoxy-4-(3-(4-methylpiperazin-1-yl)azetidin-1-yl)-N-(2-phenoxyethyl)-1H-benzo[d]imidazole-1-carboxamide] yielded an IC50 above 1000 nM. The compound further returned a solubility in series [1] of 38 µg/mL (≈ 81.8 µM).
Turning to `CN(C)CC1CN(c2cccc3c2ncn3C(=O)NCCOc2ccccc2)C1` [Example 330, 4-(3-((Dimethylamino)methyl)azetidin-1-yl)-N-(2-phenoxyethyl)-1H-benzo[d]imidazole-1-carboxamide], the IC50 on acid ceramidase (pH 4.5) is below 200 nM. For the same compound, the concentration in solution in series [1] (solubility) came to 38 µg/mL (≈ 96.6 µM).
On the same counts, the results for `CN(C)CC1CN(c2cccc3c2ncn3C(=O)NCC#Cc2ccccc2)C1` [Example 331, 4-(3-((Dimethylamino)methyl)azetidin-1-yl)-N-(3-phenylprop-2-yn-1-yl)-1H-benzo[d]imidazole-1-carboxamide] are below 200 nM and 22 µg/mL (≈ 56.8 µM).
Compound `CN1CCN(C2CN(c3cccc4c3ncn4C(=O)NCC#Cc3ccccc3)C2)CC1` [Example 332, 4-(3-(4-Methylpiperazin-1-yl)azetidin-1-yl)-N-(3-phenylprop-2-yn-1-yl)-1H-benzo[d]imidazole-1-carboxamide] yielded an IC50 against acid ceramidase (pH 4.5) below 200 nM. For the same compound, the solubility in series [1] is 24 µg/mL (≈ 56 µM).
With `CN1CC(N2CCN(c3cccc4c3ncn4C(=O)NCC#Cc3ccccc3)CC2)C1` [Example 333, 4-(4-(1-Methylazetidin-3-yl)piperazin-1-yl)-N-(3-phenylprop-2-yn-1-yl)-1H-benzo[d]imidazole-1-carboxamide], at acid ceramidase (pH 4.5), the IC50 is below 200 nM. In series [1], this compound had a solubility of 26 µg/mL (≈ 60.7 µM).
Turning to `COc1nc2cc(F)c(N3CCOCC3)cc2n1C(=O)NCCc1ccccc1` [Example 334a, 5-Fluoro-2-methoxy-6-morpholino-N-(2-phenethyl)-1H-benzo[d]imidazole-1-carboxamide], at acid ceramidase (pH 4.5), the IC50 is below 200 nM. In addition, the solubility in series [1] turned out to be 3 µg/mL (≈ 7.53 µM).
Compound `COc1nc2cc(N3CCOCC3)c(F)cc2n1C(=O)NCCc1ccccc1` [Example 334b, 6-fluoro-2-methoxy-5-morpholino-N-(2-phenethyl)-1H-benzo[d]imidazole-1-carboxamide] gave an IC50 at acid ceramidase (pH 4.5) below 200 nM. Besides, the solubility in series [1] was 5 µg/mL (≈ 12.5 µM).
With `COc1nc2cc(F)c(N3CCOCC3)cc2n1C(=O)NCCOc1ccccc1` [Example 335a, 5-Fluoro-2-methoxy-6-morpholino-N-(2-phenoxyethyl)-1H-benzo[d]imidazole-1-carboxamide], at acid ceramidase (setting [2]), the half-maximal inhibitory concentration (IC50) was below 200 nM. This compound yielded a solubility in series [1] of 1 µg/mL (≈ 2.41 µM).
On the same counts, the results for `COc1nc2cc(N3CCOCC3)c(F)cc2n1C(=O)NCCOc1ccccc1` [Example 335b, 6-fluoro-2-methoxy-5-morpholino-N-(2-phenoxyethyl)-1H-benzo[d]imidazole-1-carboxamide] are below 200 nM and 7 µg/mL (≈ 16.9 µM).
On acid ceramidase (setting [2]), `CN1CCN(c2cccc3c2ncn3C(=O)NCC#Cc2ccc(F)cc2)CC1` [Example 336, N-(3-(4-Fluorophenyl)prop-2-yn-1-yl)-4-(4-methylpiperazin-1-yl)-1H-benzo[d]imidazole-1-carboxamide] registered an IC50 below 200 nM. The compound further returned a solubility in series [1] of 15 µg/mL (≈ 38.3 µM).
The corresponding values for `CN1CCN(c2cccc3c2ncn3C(=O)NCC#Cc2cccc(F)c2)CC1` [Example 337, N-(3-(3-Fluorophenyl)prop-2-yn-1-yl)-4-(4-methylpiperazin-1-yl)-1H-benzo[d]imidazole-1-carboxamide] are below 200 nM and 15 µg/mL (≈ 38.3 µM).
On acid ceramidase (setting [2]), `CN1CCN(c2cccc3c2ncn3C(=O)NCC#Cc2ccccc2F)CC1` [Example 338, N-(3-(2-Fluorophenyl)prop-2-yn-1-yl)-4-(4-methylpiperazin-1-yl)-1H-benzo[d]imidazole-1-carboxamide] yielded an IC50 below 200 nM. In addition, the concentration in solution in series [1] (solubility) came to 18 µg/mL (≈ 46 µM).
`COc1ccc(C#CCNC(=O)n2cnc3c(N4CCN(C)CC4)cccc32)cc1` [Example 339, N-(3-(4-Methoxyphenyl)prop-2-yn-1-yl)-4-(4-methylpiperazin-1-yl)-1H-benzo[d]imidazole-1-carboxamide] displayed an IC50 on acid ceramidase (setting [2]) below 200 nM. For the same compound, the concentration in solution in series [1] (solubility) was 16 µg/mL (≈ 39.7 µM).
For `COc1cccc(C#CCNC(=O)n2cnc3c(N4CCN(C)CC4)cccc32)c1` [Example 340, N-(3-(3-Methoxyphenyl)prop-2-yn-1-yl)-4-(4-methylpiperazin-1-yl)-1H-benzo[d]imidazole-1-carboxamide], on acid ceramidase (setting [2]), the IC50 is below 200 nM. Further, in series [1], the solubility was 13 µg/mL (≈ 32.2 µM).
On to `COc1ccccc1C#CCNC(=O)n1cnc2c(N3CCN(C)CC3)cccc21` [Example 341, N-(3-(2-Methoxyphenyl)prop-2-yn-1-yl)-4-(4-methylpiperazin-1-yl)-1H-benzo[d]imidazole-1-carboxamide], for which the IC50 on acid ceramidase (setting [2]) is below 200 nM. In series [1], this compound registered a solubility of 20 µg/mL (≈ 49.6 µM).
Compound `C#Cc1ccc(CNC(=O)n2cnc3c(N4CCN(C)CC4)cccc32)cc1` [Example 342, N-(4-Ethynylbenzyl)-4-(4-methylpiperazin-1-yl)-1H-benzo[d]imidazole-1-carboxamide] yielded an IC50 on acid ceramidase (setting [2]) below 200 nM. In series [1], this compound came in with a solubility of 4 µg/mL (≈ 10.7 µM).
The compound `CN1CCN(CCOc2nc3ccccc3n2C(=O)NCCc2ccccc2)CC1` [Example 343] came in with an IC50 at acid ceramidase (setting [2]) of 200 to 1000 nM. This compound returned a solubility in series [1] of 24 µg/mL (≈ 58.9 µM).

Usually IC50 stands for the point on the concentration scale where inhibition reaches its midpoint. As a reminder, the solubility is the concentration that dissolves in the medium under given conditions.
